In US9421186B2, “Method for improving therapy for autoimmune diseases such as rheumatoid arthritis” (priority 2012, dated 2016):
Like-named read-outs stand apart in the source and are kept apart here.

Key:
adjuvant arthritis [1] = assay: Adjuvant-induced arthritis in rats, paw swelling of left hind leg (Test Example 1); format: in vivo, Lewis male rat; conditions: oral once a day for 21 days; for Swelling rate: left hind leg, 21st day after arthritis induction; for Inhibition rate: vs control swelling rate, 21st day
Experimental: A suspension of dead Mycobacterium tuberculosis in liquid paraffin (0.6 mg/0.1 mL) was intradermally injected in the plantar region of left hind paw of each Lewis male rat to induce adjuvant arthritis. The paw volumes of both hind legs were measured using a plethysmometer on a daily basis from before to after the induction of arthritis. The test substances were separately suspended or dissolved in 0.5% aqueous methylcellulose solutions to prepare dosing solutions, which were orally administered once a day for 21 days from immediately after the adjuvant injection. In the case of combined administration, both test substances were simultaneously administered.
The dose of iguratimod was set to 3 mg/kg, while the dose of methotrexate was set to 0.1 mg/kg. Alternatively, 3 mg/kg iguratimod and 0.1 mg/kg methotrexate were administered in combination.
1 mL of 0.5% aqueous methylcellulose solution per 100 g of body weight was orally administered to an untreated normal group and a control group that received no test substance after the induction of arthritis.
On the day after the final administration (on the 21st day after the induction of arthritis), the paw volume of the left hind leg was measured for each group. Subsequently, peripheral blood was collected therefrom, and the reticulocyte count was measured.

adjuvant arthritis [2] = assay: Adjuvant-induced arthritis in rats, paw swelling of both hind legs, therapeutic dosing (Test Example 2); format: in vivo, Lewis male rat; conditions: oral once a day for 7 days from day 18, 25th day; for Swelling rate: average of both hind legs; for Inhibition rate: vs control swelling rate
Experimental: A suspension of dead Mycobacterium tuberculosis in liquid paraffin (0.6 mg/0.1 mL) was intradermally injected to the base of tail of each Lewis male rat to induce adjuvant arthritis. On the 18th day after the induction of arthritis, the paw volumes of both hind legs were measured. The rats were grouped so that the paw volumes of both hind legs averaged out per group. The test substances were separately suspended or dissolved in 0.5% aqueous methylcellulose solutions to prepare dosing solutions, which were orally administered once a day for 7 days from the grouping date. In the case of combined administration, both test substances were simultaneously administered through an oral route.
The dose of iguratimod was set to 1 mg/kg, while the dose of prednisolone was set to 5 mg/kg. Alternatively, 1 mg/kg iguratimod and 5 mg/kg prednisolone were orally administered in combination.
1 mL of 0.5% aqueous methylcellulose solution per 100 g of body weight was orally administered to a control group that received no test substance after the grouping.
On the day after the final administration (on the 25th day after the induction of arthritis), the paw volumes of both hind legs were measured for each group. Subsequently, the rats were killed by blood removal. Then, their thymus glands, spleens, and adrenal glands were extirpated, and the weights were measured to calculate the ratio of each organ weight to 100 g body weight.

HepG2 cells [3] = conditions: human, 24 h
Experimental: (§1) HepG2 cells floating in a Dulbecco's modified Eagle's medium (DMEM) containing 10% fetal bovine serum (FBS) were inoculated at a concentration of 3.5×10^4 cells/0.1 mL/well to a 96-well plate and cultured at 37° C. for approximately 24 hours in a 5% CO2 atmosphere. Then, the medium was replaced by DMEM containing iguratimod and methotrexate and containing 0.5% FBS, and the cells were further cultured therein for 24 hours. In this context, iguratimod was dissolved in a 1.12-fold molar quantity of 0.1 mol/L sodium hydroxide solution, diluted with distilled water, and then added to the culture solution. Methotrexate was dissolved in dimethyl sulfoxide (DMSO) and added to the culture solution. Test substance-free DMEM containing 0.25% DMSO and 0.5% FBS was used in a control group.
(§2) After the completion of culture, each culture supernatant was separated, and the activity of lactate dehydrogenase (LDH) released outside the cells was determined using Cytotoxicity Detection Kit (LDH) (Roche Applied Science). In order to determine LDH activity in the whole cells, 0.1 mL of DMEM containing 2% Triton X-100 and 0.5% FBS was then added to each well after the culture supernatant separation to prepare a cell lysate. The LDH activity was determined in the same way as above.
(§3) The rate of LDH release (%) was calculated according to the formula shown below and indicated by the average value of each group. Its ratio with respect to the control group was also determined. Rate of LDH release (%)=Activity in the culture supernatant/(Activity in the culture supernatant+Activity in the cell lysate)×100

HepG2 cells [4] = assay: Cellular damage of HepG2 cells, LDH release (Test Example 3); conditions: iguratimod 0, HepG2, 24 hours; for Rate of LDH release: control 14.2
Experimental: as §1, §2, §3

CS(=O)(=O)Nc1cc2occ(NC=O)c(=O)c2cc1Oc1ccccc1 [Iguratimod, N-[7-[(methanesulfonyl)amino]-4-oxo-6-phenoxy-4H-1-benzopyran-3-yl]formamide]
Swelling rate (adjuvant arthritis [1]; iguratimod 3 mg/kg): 93%
Inhibition rate (adjuvant arthritis [1]; iguratimod 3 mg/kg): 40%
Swelling rate (adjuvant arthritis [2]; iguratimod 1 mg/kg): 76%
Inhibition rate (adjuvant arthritis [2]; iguratimod 1 mg/kg): 28%
Rate of LDH release (HepG2 cells [3]; 3 μg/mL): 15.9%
Rate of LDH release, ratio to control group (HepG2 cells [3]; 3 μg/mL): 112%
Rate of LDH release (HepG2 cells [3]; 30 μg/mL): 17.0%
Rate of LDH release, ratio to control group (HepG2 cells [3]; 30 μg/mL): 120%

C[C@]12C=CC(=O)C=C1CC[C@@H]1[C@@H]2[C@@H](O)C[C@@]2(C)[C@H]1CC[C@]2(O)C(=O)CO [Prednisolone, prednisolone]
Swelling rate (adjuvant arthritis [2]; prednisolone 5 mg/kg): 66%
Inhibition rate (adjuvant arthritis [2]; prednisolone 5 mg/kg): 37%

CN(Cc1cnc2nc(N)nc(N)c2n1)c1ccc(C(=O)N[C@@H](CCC(=O)O)C(=O)O)cc1 [Methotrexate, methotrexate]
Swelling rate (adjuvant arthritis [1]; methotrexate 0.1 mg/kg): 114%
Inhibition rate (adjuvant arthritis [1]; methotrexate 0.1 mg/kg): 26%
Rate of LDH release, ratio to control group (HepG2 cells [4]; methotrexate 1 μg/mL): 172%
Rate of LDH release (HepG2 cells [4]; methotrexate 1 μg/mL): 24.4%
Rate of LDH release, ratio to control group (HepG2 cells [4]; methotrexate 10 μg/mL): 189%
Rate of LDH release (HepG2 cells [4]; methotrexate 10 μg/mL): 26.8%
